Assay results: patent US11612606B2, “8-aminoisoquinoline compounds and uses thereof” (priority 2018, dated 2023)
Structures can show the parent of a compound that is named as a salt. Where two headings read alike, the source gives them in different places.

Target: HPK full length, T165E S171E (Homo sapiens (Human), UniProt Q92918, S171E/T165E)
Experiment: HPK1-FL HTRF enzymatic assay ("HTRF")
Assay type: biochemical
Details: ATP 1 mM
Method in brief: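 Full-length HPK1 (T165E/S171E) was preincubated 30 min with compound, then reacted 60 min with biotin-SLP-76 and 1 mM ATP. Phospho-SLP-76 was detected by HTRF (Eu-anti-pSLP76 antibody, SA-XL665) after a further 60 min.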

Chain of HPK full length, T165E S171E (Q92918 whole entry T165E/S171E, looked up): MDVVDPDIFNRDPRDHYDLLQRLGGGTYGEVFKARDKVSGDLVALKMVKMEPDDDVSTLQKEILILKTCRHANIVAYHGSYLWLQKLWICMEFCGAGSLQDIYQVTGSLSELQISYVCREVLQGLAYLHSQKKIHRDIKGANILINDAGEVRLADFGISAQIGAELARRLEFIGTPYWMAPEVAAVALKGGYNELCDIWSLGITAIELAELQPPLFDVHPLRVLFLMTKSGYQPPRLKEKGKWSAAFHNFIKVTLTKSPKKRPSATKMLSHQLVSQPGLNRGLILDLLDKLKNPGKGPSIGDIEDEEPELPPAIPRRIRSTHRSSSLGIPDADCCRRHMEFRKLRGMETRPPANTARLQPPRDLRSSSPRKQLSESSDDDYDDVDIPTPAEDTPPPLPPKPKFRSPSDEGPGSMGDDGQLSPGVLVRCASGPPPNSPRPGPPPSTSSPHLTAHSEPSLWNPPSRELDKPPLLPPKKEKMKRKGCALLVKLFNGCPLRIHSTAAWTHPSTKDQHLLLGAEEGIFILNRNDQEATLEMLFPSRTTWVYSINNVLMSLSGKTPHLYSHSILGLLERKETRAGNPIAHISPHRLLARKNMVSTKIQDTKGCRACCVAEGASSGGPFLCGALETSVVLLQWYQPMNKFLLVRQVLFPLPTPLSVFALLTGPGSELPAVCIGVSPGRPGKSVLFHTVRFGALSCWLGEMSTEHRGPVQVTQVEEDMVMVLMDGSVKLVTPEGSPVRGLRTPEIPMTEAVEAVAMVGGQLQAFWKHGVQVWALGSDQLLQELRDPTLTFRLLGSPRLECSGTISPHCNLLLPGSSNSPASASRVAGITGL

Work on `Cc1c(-c2cc3cc(NC(=O)OC(C)C)ncc3c(N)c2F)cnc2c1NCCO2` [Compound 436, Isopropyl (8-amino-7-fluoro-6-(8-methyl-2,3-dihydro-1H-pyrido[2,3-b][1,4]oxazin-7-yl)isoquinolin-3-yl)carbamate] yielded a Ki (read-out: HPK1 Ki) of 0.014 nM.
In the case of `Cc1c(-c2cc3cc(NC(=O)OC4CC5(C4)CN(C4COC4)C5)ncc3c(N)c2F)cnc2c1NCCO2` [Compound 443, 2-(Oxetan-3-yl)-2-azaspiro[3.3]heptan-6-yl (8-amino-7-fluoro-6-(8-methyl-2,3-dihydro-1H-pyrido[2,3-b][1,4]oxazin-7-yl)isoquinolin-3-yl)carbamate], the Ki (read-out: HPK1 Ki) is reported as < 0.013 nM.
`Cc1c(-c2cc3cc(NC(=O)O[C@@H]4CCN(C5COC5)C[C@@H]4F)ncc3c(N)c2F)cnc2c1NCCO2` [Compound 445c, (3S,4R)-3-Fluoro-1-(oxetan-3-yl)piperidin-4-yl (8-amino-7-fluoro-6-(8-methyl-2,3-dihydro-1H-pyrido[2,3-b][1,4]oxazin-7-yl)isoquinolin-3-yl)carbamate] showed a Ki (read-out: HPK1 Ki) of 0.015 nM.
In the case of `Cc1c(-c2cc3cc(NC(=O)O[C@H]4CCN(C5COC5)C[C@H]4F)ncc3c(N)c2F)cnc2c1NCCO2` [Compound 445d, (3R,4S)-3-Fluoro-1-(oxetan-3-yl)piperidin-4-yl (8-amino-7-fluoro-6-(8-methyl-2,3-dihydro-1H-pyrido[2,3-b][1,4]oxazin-7-yl)isoquinolin-3-yl)carbamate], the Ki (read-out: HPK1 Ki) is reported as < 0.013 nM.
With `Cc1c(-c2cc3cc(NC(=O)O[C@H]4C[C@H](N(C)C)C4)ncc3c(N)c2F)cnc2c1NCCO2` [Compound 447a, (1r,3r)-3-(Dimethylamino)cyclobutyl (8-amino-7-fluoro-6-(8-methyl-2,3-dihydro-1H-pyrido[2,3-b][1,4]oxazin-7-yl)isoquinolin-3-yl)carbamate hydrochloride] the Ki (read-out: HPK1 Ki) was < 0.013 nM.
Work on `Cc1c(-c2cc3cc(NC(=O)OCC4(F)CN(C)C4)ncc3c(N)c2F)cnc2c1NCCO2` [Compound 450, (3-Fluoro-1-methyl-azetidin-3-yl)methyl N-[8-amino-7-fluoro-6-(8-methyl-2,3-dihydro-1H-pyrido[2,3-b][1,4]oxazin-7-yl)-3-isoquinolyl]carbamate] yielded a Ki (read-out: HPK1 Ki) of 0.13 nM.
Molecule `Cc1c(-c2cc3cc(NC(=O)O[C@H]4CN(C)C[C@@H]4F)ncc3c(N)c2F)cnc2c1NCCO2` [Compound 452a, (3S,4S)-4-Fluoro-1-methylpyrrolidin-3-yl (8-amino-7-fluoro-6-(8-methyl-2,3-dihydro-1H-pyrido[2,3-b][1,4]oxazin-7-yl)isoquinolin-3-yl)carbamate] has a Ki (read-out: HPK1 Ki) of 0.03 nM.
`Cc1c(-c2cc3cc(NC(=O)O[C@@H]4CN(C)C[C@H]4F)ncc3c(N)c2F)cnc2c1NCCO2` [Compound 452b, (3R,4R)-4-Fluoro-1-methylpyrrolidin-3-yl (8-amino-7-fluoro-6-(8-methyl-2,3-dihydro-1H-pyrido[2,3-b][1,4]oxazin-7-yl)isoquinolin-3-yl)carbamate] showed a Ki (HPK1 Ki) of 0.036 nM.
`Cc1c(-c2cc3cc(NC(=O)O[C@H]4CN(C)C[C@H]4F)ncc3c(N)c2F)cnc2c1NCCO2` [Compound 452c, (3S,4R)-4-Fluoro-1-methylpyrrolidin-3-yl (8-amino-7-fluoro-6-(8-methyl-2,3-dihydro-1H-pyrido[2,3-b][1,4]oxazin-7-yl)isoquinolin-3-yl)carbamate] was tested, and the Ki (read-out: HPK1 Ki) was 0.17 nM.
For `Cc1c(-c2cc3cc(NC(=O)OC4CN(C)CCN(C)C4)ncc3c(N)c2F)cnc2c1NCCO2` [Compound 465, 1,4-Dimethyl-1,4-diazepan-6-yl (8-amino-7-fluoro-6-(8-methyl-2,3-dihydro-1H-pyrido[2,3-b][1,4]oxazin-7-yl)isoquinolin-3-yl)carbamate], the Ki (read-out: HPK1 Ki) was 0.46 nM.
`COCCN1CC(OC(=O)Nc2cc3cc(-c4cnc5c(c4C)NCCO5)c(F)c(N)c3cn2)C1` [Compound 474, 1-(2-Methoxyethyl)azetidin-3-yl (8-amino-7-fluoro-6-(8-methyl-2,3-dihydro-1H-pyrido[2,3-b][1,4]oxazin-7-yl)isoquinolin-3-yl)carbamate] gave a Ki (read-out: HPK1 Ki) of 0.06 nM.
In the case of `Cc1c(-c2cc3cc(NC(=O)O[C@@H]4COC[C@H]4F)ncc3c(N)c2F)cnc2c1NCCO2` [Compound 477a, (3R,4R)-4-Fluorotetrahydrofuran-3-yl (8-amino-7-fluoro-6-(8-methyl-2,3-dihydro-1H-pyrido[2,3-b][1,4]oxazin-7-yl)isoquinolin-3-yl)carbamate], the Ki (read-out: HPK1 Ki) is reported as 0.034 nM.
`Cc1c(-c2cc3cc(NC(=O)O[C@H]4COC[C@H]4F)ncc3c(N)c2F)cnc2c1NCCO2` [Compound 477c, (3S,4R)-4-Fluorotetrahydrofuran-3-yl (8-amino-7-fluoro-6-(8-methyl-2,3-dihydro-1H-pyrido[2,3-b][1,4]oxazin-7-yl)isoquinolin-3-yl)carbamate] was tested, and the Ki (read-out: HPK1 Ki) was 0.15 nM.
For `Cc1c(-c2cc3cc(NC(=O)O[C@H]4C[C@@H](C#N)C4)ncc3c(N)c2F)cnc2c1NCCC2` [Compound 483a, (1s,3s)-3-Cyanocyclobutyl (8-amino-7-fluoro-6-(4-methyl-5,6,7,8-tetrahydro-1,5-naphthyridin-3-yl)isoquinolin-3-yl)carbamate], the Ki (read-out: HPK1 Ki) was < 0.013 nM.
With `Cc1c(-c2cc3cc(NC(=O)O[C@H]4C[C@@H](C#N)C4)ncc3c(N)c2F)cnc2c1NCCO2` [Compound 484a, (1s,3s)-3-Cyanocyclobutyl (8-amino-7-fluoro-6-(8-methyl-2,3-dihydro-1H-pyrido[2,3-b][1,4]oxazin-7-yl)isoquinolin-3-yl)carbamate] the Ki (read-out: HPK1 Ki) was < 0.013 nM.
For `Cc1c(-c2cc3cc(NC(=O)O[C@H]4C[C@@H](O)C4)ncc3c(N)c2F)cnc2c1NCCO2` [Compound 485a, (1s,3s)-3-Hydroxycyclobutyl (8-amino-7-fluoro-6-(8-methyl-2,3-dihydro-1H-pyrido[2,3-b][1,4]oxazin-7-yl)isoquinolin-3-yl)carbamate], the Ki (read-out: HPK1 Ki) was < 0.013 nM.
`Cc1c(-c2cc3cc(NC(=O)O[C@H]4C[C@H](O)C4)ncc3c(N)c2F)cnc2c1NCCO2` [Compound 485b, (1r,3r)-3-Hydroxycyclobutyl (8-amino-7-fluoro-6-(8-methyl-2,3-dihydro-1H-pyrido[2,3-b][1,4]oxazin-7-yl)isoquinolin-3-yl)carbamate] was tested, and the Ki (read-out: HPK1 Ki) was < 0.013 nM.
`Cc1c(-c2cc3cc(NC(=O)O[C@H]4C[C@](C)(O)C4)ncc3c(N)c2F)cnc2c1NCCO2` [Compound 486b, (1r,3r)-3-Hydroxy-3-methylcyclobutyl (8-amino-7-fluoro-6-(8-methyl-2,3-dihydro-1H-pyrido[2,3-b][1,4]oxazin-7-yl)isoquinolin-3-yl)carbamate] was tested, and the Ki (read-out: HPK1 Ki) was 0.018 nM.
For `Cc1c(-c2cc3cc(NC(=O)OC4CCC4)ncc3c(N)c2F)cnc2c1NCCO2` [Compound 487, Cyclobutyl (8-amino-7-fluoro-6-(8-methyl-2,3-dihydro-1H-pyrido[2,3-b][1,4]oxazin-7-yl)isoquinolin-3-yl)carbamate], the Ki (read-out: HPK1 Ki) was < 0.013 nM.
Work on `CCC(=O)N1CC(OC(=O)Nc2cc3cc(-c4cnc5c(c4C)NCCC5)c(F)c(N)c3cn2)C1` [Compound 492, 1-Propionylazetidin-3-yl (8-amino-7-fluoro-6-(4-methyl-5,6,7,8-tetrahydro-1,5-naphthyridin-3-yl)isoquinolin-3-yl)carbamate] yielded a Ki (read-out: HPK1 Ki) of 0.055 nM.
`Cc1c(-c2cc3cc(NC(=O)OC4CN(S(C)(=O)=O)C4)ncc3c(N)c2F)cnc2c1NCCC2` [Compound 493, 1-(Methylsulfonyl)azetidin-3-yl (8-amino-7-fluoro-6-(4-methyl-5,6,7,8-tetrahydro-1,5-naphthyridin-3-yl)isoquinolin-3-yl)carbamate] gave a Ki (read-out: HPK1 Ki) of 0.064 nM.
With `Cc1c(-c2cc3cc(NC(=O)OC4CC5(C4)CN(CC(F)F)C5)ncc3c(N)c2F)cnc2c1NCCO2` [Compound 494, 2-(2,2-Difluoroethyl)-2-azaspiro[3.3]heptan-6-yl (8-amino-7-fluoro-6-(8-methyl-2,3-dihydro-1H-pyrido[2,3-b][1,4]oxazin-7-yl)isoquinolin-3-yl)carbamate] the Ki (read-out: HPK1 Ki) was < 0.013 nM.
`Cc1c(-c2cc3cc(NC(=O)O[C@H]4[C@@H]5CN(C(C)C)C[C@@H]54)ncc3c(N)c2F)cnc2c1NCCO2` [Compound 499a, (1R,5S,6s)-3-Isopropyl-3-azabicyclo[3.1.0]hexan-6-yl (8-amino-7-fluoro-6-(8-methyl-2,3-dihydro-1H-pyrido[2,3-b][1,4]oxazin-7-yl)isoquinolin-3-yl)carbamate] was tested, and the Ki (read-out: HPK1 Ki) was < 0.013 nM.
In the case of `Cc1c(-c2cc3cc(NC(=O)O[C@H]4[C@@H]5CN(C6COC6)C[C@@H]54)ncc3c(N)c2F)cnc2c1NCCO2` [Compound 502a, (1R,5S,6s)-3-(Oxetan-3-yl)-3-azabicyclo[3.1.0]hexan-6-yl (8-amino-7-fluoro-6-(8-methyl-2,3-dihydro-1H-pyrido[2,3-b][1,4]oxazin-7-yl)isoquinolin-3-yl)carbamate], the Ki (read-out: HPK1 Ki) is reported as < 0.013 nM.
Molecule `CC[C@]1(O)C[C@H](OC(=O)Nc2cc3cc(-c4cnc5c(c4C)NCCO5)c(F)c(N)c3cn2)C1` [Compound 512a, (1s,3r)-3-Ethyl-3-hydroxycyclobutyl (8-amino-7-fluoro-6-(8-methyl-2,3-dihydro-1H-pyrido[2,3-b][1,4]oxazin-7-yl)isoquinolin-3-yl)carbamate] has a Ki (read-out: HPK1 Ki) of 0.015 nM.
For `Cc1c(-c2cc3cc(NC(=O)O[C@H]4C[C@@H](N5CC(F)(F)C5)C4)ncc3c(N)c2F)cnc2c1NCCO2` [Compound 513a, (1s, 3s)-3-(3,3-Difluoroazetidin-1-yl)cyclobutyl (8-amino-7-fluoro-6-(8-methyl-2,3-dihydro-1H-pyrido[2,3-b][1,4]oxazin-7-yl)isoquinolin-3-yl)carbamate], the Ki (read-out: HPK1 Ki) was 0.022 nM.
For `Cc1c(-c2cc3cc(NC(=O)O[C@H]4C[C@H](n5ccnc5)C4)ncc3c(N)c2F)cnc2c1NCCO2` [Compound 514a, (1r,3r)-3-(1H-Imidazol-1-yl)cyclobutyl (8-amino-7-fluoro-6-(8-methyl-2,3-dihydro-1H-pyrido[2,3-b][1,4]oxazin-7-yl)isoquinolin-3-yl)carbamate hydrochloride], the Ki (read-out: HPK1 Ki) was < 0.013 nM.
`Cc1c(-c2cc3cc(NC(=O)O[C@H]4C[C@@H](C(=O)N5CCC5)C4)ncc3c(N)c2F)cnc2c1NCCO2` [Compound 517a, (1s,3s)-3-(Azetidine-1-carbonyl)cyclobutyl (8-amino-7-fluoro-6-(8-methyl-2,3-dihydro-1H-pyrido[2,3-b][1,4]oxazin-7-yl)isoquinolin-3-yl)carbamate] was tested, and the Ki (read-out: HPK1 Ki) was < 0.013 nM.
